# Biological target: T1, BRD4 bromodomains (Homo sapiens, UniProt O60885)
# T1 construct: fused on or other part: T7 phage capsid protein (phage-display fusion; the phage DNA is read out by qPCR)
# Experiment: BROMOscan bromodomain competition binding assay (DiscoveRx)
# Settings: Kd from 11 compound concentrations ranging from 0 to 10 μM, read-out: BROMOscan Relative Activity
# Protocol: Bromodomain assays were conducted to measure interactions between certain compounds and bromodomains.
# The assays were conducted according to BROMOscan protocol from Discover Rx. Briefly, BRD4 bromodomains expressed as a fusion capsid protein of T7 phage were bound to acetylated peptide ligand on a solid phase and competition bindings were performed. T7 phage strains displaying bromodomains were grown in parallel in 24-well blocks in an E. coli host derived from the BL21 strain. E. coli were grown to log-phase and infected with T7 phage from a frozen stock (multiplicity of infection=0.4) and incubated with shaking at 32° C. until lysis (90-150 minutes). The lysates were centrifuged (5,000×g) and filtered (0.2 μm) to remove cell debris. […] The liganded beads were blocked with excess biotin and washed with blocking buffer (SeaBlock (Pierce), 1% BSA, 0.05% Tween 20, 1 mM DTT) to remove unbound ligand and to reduce non-specific phage binding. […] Test compounds were prepared as 1000× stocks in 100% DMSO and subsequently diluted 1:10 in monoethylene glycol (MEG) to create stocks at 100× the screening concentration (resulting stock solution is 10% DMSO/90% MEG). The compounds were then diluted directly into the assays such that the final concentration of DMSO and MEG were 0.1% and 0.9%, respectively. All reactions were performed in polystyrene 96-well plates in a final volume of 0.135 ml. […] The bromodomain concentration in the eluates was measured by qPCR. Data was collected at 11 compound concentrations ranging from 0 to 10 μM. Kd values were then derived from a standard dose-response curve generated with Hill equation (Hill Slope was set to ˜1) and a non-linear least square fit with the Levenberg-Marquardt algorithm. Response=Background+Signal−Background/1+(Kd Hill Slope/Dose Hill Slope)
row,SMILES,Kd [nM]
1,"Cc1ccc(CNc2nc(N3CCN(CCN(C)C)CC3)nc3ccc(-c4c(C)noc4C)cc23)s1 [Example 88, 2-(4-(2-(dimethylamino)ethyl)piperazin-1-yl)-6-(3,5-dimethylisoxazol-4-yl)-N-((5-methylthiophen-2-yl)methyl)quinazolin-4-amine]",< 500
2,"Cc1nn(C)cc1CNC(=O)c1nc(NC2(c3cccc(Cl)c3)CC2)c2cc(-c3c(C)noc3C)ccc2n1 [Example 245, 4-((1-(3-chlorophenyl)cyclopropyl)amino)-N-((1,3-dimethyl-1H-pyrazol-4-yl)methyl)-6-(3,5-dimethylisoxazol-4-yl)quinazoline-2-carboxamide]",< 500
3,"Cc1noc(C)c1-c1ccc2nc(N3CCC(CN(C)C)CC3)nc(NCc3cccc(Cl)c3)c2c1 [Example 41, N-(3-chlorobenzyl)-2-(4-((dimethylamino)methyl)piperidin-1-yl)-6-(3,5-dimethylisoxazol-4-yl)quinazolin-4-amine]",< 500
4,"Cc1noc(C)c1-c1ccc2nc(N3CCN(C[C@@H](C)O)CC3)nc(NCc3cccc(Cl)c3)c2c1 [Example 46, (R)-1-(4-(4-((3-chlorobenzyl)amino)-6-(3,5-dimethylisoxazol-4-yl)quinazolin-2-yl)piperazin-1-yl)propan-2-ol]",< 500
5,"Cc1noc(C)c1-c1ccc2ncnc(NCc3cccc(Cl)c3)c2c1 [Example 2, N-(3-chlorobenzyl)-6-(3,5-dimethylisoxazol-4-yl)quinazolin-4-amine]",< 500
6,"Cc1noc(C)c1-c1ccc2nc(Cl)nc(Nc3ccc(Cl)cc3)c2c1 [Example 151, 2-chloro-N-(4-chlorophenyl)-6-(3,5-dimethylisoxazol-4-yl)quinazolin-4-amine]",> 5000
7,"Cc1noc(C)c1-c1ccc2nc(NCc3cccc(Cl)c3)cc(N3CCN(CCN(C)C)CC3)c2c1 [Example 27, N-(3-chlorobenzyl)-4-(4-(2-(dimethylamino)ethyl)piperazin-1-yl)-6-(3,5-dimethylisoxazol-4-yl)quinolin-2-amine]",500 to 5000
8,"Cc1noc(C)c1-c1ccc2nc(N3CCN(CCN(C)C)CC3)nc(N[C@H](CO)c3ccccc3)c2c1 [Example 173, (S)-2-((2-(4-(2-(dimethylamino)ethyl)piperazin-1-yl)-6-(3,5-dimethylisoxazol-4-yl)quinazolin-4-yl)amino)-2-phenylethanol]",< 500
9,"Cc1noc(C)c1-c1ccc2nc(N3CCCN(CCO)CC3)nc(NCc3cccc(Cl)c3)c2c1 [Example 33, 2-(4-(4-((3-chlorobenzyl)amino)-6-(3,5-dimethylisoxazol-4-yl)quinazolin-2-yl)-1,4-diazepan-1-yl)ethanol]",< 500
10,"Cc1noc(C)c1-c1ccc2nc(N3CCN(CCN(C)C)CC3)nc(NCc3cccnc3)c2c1 [Example 80, 2-(4-(2-(dimethylamino)ethyl)piperazin-1-yl)-6-(3,5-dimethylisoxazol-4-yl)-N-(pyridin-3-ylmethyl)quinazolin-4-amine]",< 500
11,"Cc1noc(C)c1-c1ccc2nc(C(=O)NCc3cncn3C)nc(N3CCOC[C@@H]3c3ccccc3)c2c1 [Example 279, (S)-6-(3,5-dimethylisoxazol-4-yl)-N-((1-methyl-1H-imidazol-5-yl)methyl)-4-(3-phenylmorpholino)quinazoline-2-carboxamide]",< 500
12,"Cc1noc(C)c1-c1ccc2nc(N3CCC(CO)CC3)nc(NCc3cccc(Cl)c3)c2c1 [Example 23, (1-(4-((3-chlorobenzyl)amino)-6-(3,5-dimethylisoxazol-4-yl)quinazolin-2-yl)piperidin-4-yl)methanol]",500 to 5000
13,"Cc1noc(C)c1-c1ccc2nc(C(=O)N3CCc4cnn(C)c4C3)nc(N3CCOC[C@@H]3c3ccccc3)c2c1 [Example 317, (S)-(6-(3,5-dimethylisoxazol-4-yl)-4-(3-phenylmorpholino)quinazolin-2-yl)(1-methyl-1,4,5,7-tetrahydro-6H-pyrazolo[3,4-c]pyridin-6-yl)methanone]",500 to 5000

# Continued, values first:
row,Kd [nM],SMILES
1,< 500,"Cn1cc(-c2ccc3nc(N4CCN(CC(N)=O)CC4)nc(NCc4cncc(Cl)c4)c3c2)ccc1=O [Example 127, 2-(4-(4-(((5-chloropyridin-3-yl)methyl)amino)-6-(1-methyl-6-oxo-1,6-dihydropyridin-3-yl)quinazolin-2-yl)piperazin-1-yl)acetamide]"
2,< 500,"Cn1cc(-c2ccc3nc(N4CCN(C(=O)CN)CC4)nc(NCc4cccc(Cl)c4)c3c2)ccc1=O [Example 107, 5-(2-(4-(2-aminoacetyl)piperazin-1-yl)-4-((3-chlorobenzyl)amino)quinazolin-6-yl)-1-methylpyridin-2(1H)-one]"
3,> 5000,"Cc1noc(C)c1-c1ccc2nc(C(=O)NCc3ccc(Cl)cc3)nc(NCc3cccc(Cl)c3)c2c1 [Example 168, N-(4-chlorobenzyl)-4-((3-chlorobenzyl)amino)-6-(3,5-dimethylisoxazol-4-yl)quinazoline-2-carboxamide]"
4,< 500,"CN(C)CCN1CCN(c2nc(NCc3cccc(Cl)c3)c3cc(-c4ccc(=O)n(C)c4)ccc3n2)CC1 [Example 66, 5-(4-((3-chlorobenzyl)amino)-2-(4-(2-(dimethylamino)ethyl)piperazin-1-yl)quinazolin-6-yl)-1-methylpyridin-2(1H)-one]"
5,< 500,"CNC(=O)Cn1cc(-c2nc(NCc3cccc(Cl)c3)c3cc(-c4ccc(=O)n(C)c4)ccc3n2)cn1 [Example 102, 2-(4-(4-((3-chlorobenzyl)amino)-6-(1-methyl-6-oxo-1,6-dihydropyridin-3-yl)quinazolin-2-yl)-1H-pyrazol-1-yl)-N-methylacetamide]"
6,< 500,"Cc1noc(C)c1-c1ccc2nc(N3CCN(S(C)(=O)=O)CC3)nc(NCc3cccc(Cl)c3)c2c1 [Example 155, N-(3-chlorobenzyl)-6-(3,5-dimethylisoxazol-4-yl)-2-(4-(methylsulfonyl)piperazin-1-yl)quinazolin-4-amine]"
7,> 5000,"Cn1cc(-c2ccc3nc(Cl)nc(NCc4cncc(Cl)c4)c3c2)ccc1=O [Example 113, 5-(2-chloro-4-(((5-chloropyridin-3-yl)methyl)amino)quinazolin-6-yl)-1-methylpyridin-2(1H)-one]"
8,< 500,"Cc1cc(-c2ccc3nc(N4CCN(CCN(C)C)CC4)nc(NCc4cccc(Cl)c4)c3c2)cnc1O [Example 91, 5-(4-((3-chlorobenzyl)amino)-2-(4-(2-(dimethylamino)ethyl)piperazin-1-yl)quinazolin-6-yl)-3-methylpyridin-2-ol]"
9,< 500,"Cc1noc(C)c1-c1ccc2nc(N3CCN(CC(N)=O)CC3)nc(NCc3cccc(Cl)c3)c2c1 [Example 54, 2-(4-(4-((3-chlorobenzyl)amino)-6-(3,5-dimethylisoxazol-4-yl)quinazolin-2-yl)piperazin-1-yl)acetamide]"
10,< 500,"Cc1noc(C)c1-c1ccc2nc(C(=O)NCc3ccc(Cl)nc3)nc(NCc3cccc(Cl)c3)c2c1 [Example 203, 4-((3-chlorobenzyl)amino)-N-((6-chloropyridin-3-yl)methyl)-6-(3,5-dimethylisoxazol-4-yl)quinazoline-2-carboxamide]"
11,< 500,"CC(=O)N1CCN(c2nc(-c3cnn(CC(C)(C)O)c3)nc3ccc(-c4c(C)noc4C)cc23)[C@@H](c2ccccc2)C1 [Example 309, (S)-1-(4-(6-(3,5-dimethylisoxazol-4-yl)-2-(1-(2-hydroxy-2-methylpropyl)-1H-pyrazol-4-yl)quinazolin-4-yl)-3-phenylpiperazin-1-yl)ethan-1-one]"
12,< 500,"CNC(=O)Cn1cc(-c2nc(NCc3cncc(Cl)c3)c3cc(-c4ccc(=O)n(C)c4)ccc3n2)cn1 [Example 147, 2-(4-(4-(((5-chloropyridin-3-yl)methyl)amino)-6-(1-methyl-6-oxo-1,6-dihydropyridin-3-yl)quinazolin-2-yl)-1H-pyrazol-1-yl)-N-methylacetamide]"
13,< 500,"Cc1noc(C)c1-c1ccc2nc(C(=O)NC3CN(C)C3)nc(NCc3cccc(Cl)c3)c2c1 [Example 198, 4-((3-chlorobenzyl)amino)-6-(3,5-dimethylisoxazol-4-yl)-N-(1-methylazetidin-3-yl)quinazoline-2-carboxamide]"
14,< 500,"CN(C)CCCN1CCN(c2nc(NCc3cncc(Cl)c3)c3cc(-c4ccc(=O)n(C)c4)ccc3n2)CC1 [Example 125, 5-(4-(((5-chloropyridin-3-yl)methyl)amino)-2-(4-(3-(dimethylamino)propyl)piperazin-1-yl)quinazolin-6-yl)-1-methylpyridin-2(1H)-one]"
15,< 500,"Cc1noc(C)c1-c1ccc2nc(N3CCN(C(=O)CN)CC3)nc(NCc3cccc(Cl)c3)c2c1 [Example 55, 2-amino-1-(4-(4-((3-chlorobenzyl)amino)-6-(3,5-dimethylisoxazol-4-yl)quinazolin-2-yl)piperazin-1-yl)ethanone]"
16,< 500,"Cc1noc(C)c1-c1ccc2nc(-c3cnn(CC(C)(C)O)c3)nc(N3CCOC[C@@H]3c3ccccc3)c2c1 [Example 262, (S)-1-(4-(6-(3,5-dimethylisoxazol-4-yl)-4-(3-phenylmorpholino)quinazolin-2-yl)-1H-pyrazol-1-yl)-2-methylpropan-2-ol]"
